From US20110165115A1, “SYNERGISTIC ATTRACTANTS FOR PESTIFEROUS SOCIAL INSECTS” (STERLING INTERNATIONAL INC., priority 2010, published 2011)

Tests used:
[1] = system: paper wasps and yellowjackets; assay: Field trapping Experiment 2; format: in vivo, V. pensylvanica, V. vulgaris and P. dominulus; settings: Exp 2
Procedure: Three field trapping experiments were carried out during late July to early August 2009, in residential and woody areas around Spokane, Wash., USA, using the newly marketed Rescue® W•H•Y traps (www.rescue.com). As used herein, the W•H•Y trap is a trap in accordance with the description of United States Patent Application Publication No. 2009/0151228. The W•H•Y trap has a top chamber and a bottom chamber. The top chamber is baited with two attractants—one of which is a solid contained in a vial (2-methyl-1-butanol) and the other a liquid mixed with water (acetic acid), herein referred to as the W•H•Y top attractant. The bottom chamber is baited with a liquid attractant (heptyl butyrate) poured onto a cotton pad, herein referred to as the W•H•Y bottom attractant. Separation of the top and bottom attractants (otherwise antagonistic to each other when released from the same chamber) in two chambers was a design feature of this trap and creates two focal attraction sources from one trap for different species of wasps, hornets, and yellowjackets. Traps were hung 1.5-2.0 m above the ground on either the fence or tree branches ca. 5 m apart within each trap line. For each trapping experiment, six sets of traps were deployed with their initial trap positions within each set being randomized. […]

V. pensylvanica = assay: Field trapping Experiment 3, different doses of DMNT alone; format: in vivo, Vespula pensylvanica
Procedure: (§1) Three field trapping experiments were carried out during late July to early August 2009, in residential and woody areas around Spokane, Wash., USA, using the newly marketed Rescue® W•H•Y traps (www.rescue.com). As used herein, the W•H•Y trap is a trap in accordance with the description of United States Patent Application Publication No. 2009/0151228. The W•H•Y trap has a top chamber and a bottom chamber. The top chamber is baited with two attractants—one of which is a solid contained in a vial (2-methyl-1-butanol) and the other a liquid mixed with water (acetic acid), herein referred to as the W•H•Y top attractant. The bottom chamber is baited with a liquid attractant (heptyl butyrate) poured onto a cotton pad, herein referred to as the W•H•Y bottom attractant. Separation of the top and bottom attractants (otherwise antagonistic to each other when released from the same chamber) in two chambers was a design feature of this trap and creates two focal attraction sources from one trap for different species of wasps, hornets, and yellowjackets. Traps were hung 1.5-2.0 m above the ground on either the fence or tree branches ca. 5 m apart within each trap line. For each trapping experiment, six sets of traps were deployed with their initial trap positions within each set being randomized. To minimize positional effects and obtain more replications, wasp collections and trap re-randomization were carried out when ≧10-20 wasps were caught in the best trap. Each replicate lasted several days depending on wasp flight activity. Captured wasps were removed from the traps and kept in the zip-bags before taking back to the laboratory for recording of the species, gender status, and catch.
(§2) Experiment 3 (Aug. 5-13, 2009) was conducted to determine the potential behavioral activity of different doses of (E)-4,8-dimethyl-1,3,7-nonatriene alone. The individual (or different doses) HIPVs were loaded into either polyethylene bags or centrifuge tube type of dispensers, and released from the top of the W•H•Y trap chamber. W•H•Y trap attractants (both top and bottom or top only) alone and water (top chamber only) were included in the test as positive and blank controls, respectively. The dispenser types, loading and release rates of the tested semiochemicals are described in Tables 1, 2 and 3.
(§3) Trap catch data were converted to proportion (P) of total captured wasps within each replicate. Data were then transformed by arcsin√P to meet the assumptions of normality and homogeneity of variances for ANOVA. Means were compared by ANOVA followed by the Ryan-Einot-Gabriel-Welsh (REGW) multiple Q test (SPSS 16.0 for Windows) at α=0.05.

P. aurifer = assay: as above; format: in vivo, Polistes aurifer
Procedure: as §1, §2, §3

V. atropilosa = assay: Field trapping Experiment 2, DMNT dose-response with W•H•Y top attractants; format: in vivo, Vespula atropilosa; settings: Exp 2, DMNT added to WHY top attractant
Procedure: as §1, §2, §3

[2] = Exp 3, release rate 0.25, hole 0.5 mm, loading 15 μL
[3] = Exp 3, release rate 0.5, hole 1 mm, loading 30 μL
[4] = Exp 3, release rate 1, hole 2 mm, loading 75 μL
[5] = Exp 3, release rate 1.5, hole 3 mm, loading 175 μL
[6] = Exp 3, release rate 2, hole 5.5 mm, loading 325 μL

C=C/C=C(\C)CCC=C(C)C [(E)-4,8-dimethyl-1,3,7-nonatriene]
effect on trap catches of the vespid workers ([1]; 0.5 or 1-1.5 mg/day added to the top attractants, especially V. pensylvanica, V. vulgaris and P. dominulus): significantly increased | effect on the trap catches ([1]; other release rates (doses) added to the top attractants): no effect | Total Yellowjackets Caught V. pensylvanica (V. pensylvanica; [2]): 43 | Total Yellowjackets Caught V. pensylvanica (V. pensylvanica; [3]): 12 | Total Yellowjackets Caught V. pensylvanica (V. pensylvanica; [4]): 34 | Total Yellowjackets Caught V. pensylvanica (V. pensylvanica; [5]): 24 | Total Yellowjackets Caught V. pensylvanica (V. pensylvanica; [6]): 24 | Total Paper Wasps Caught P. aurifer (P. aurifer; [2]): 3 | Total Paper Wasps Caught P. aurifer (P. aurifer; [3]): 1 | Total Paper Wasps Caught P. aurifer (P. aurifer; [4]): 0 | Total Paper Wasps Caught P. aurifer (P. aurifer; [5]): 5 | Total Paper Wasps Caught P. aurifer (P. aurifer; [6]): 0 | Total Yellowjackets Caught V. atropilosa (V. atropilosa; release rate 0.25, hole 0.5 mm, loading 15 μL): 0 | Total Yellowjackets Caught V. atropilosa (V. atropilosa; release rate 0.5, hole 1 mm, loading 30 μL): 0 | Total Yellowjackets Caught V. atropilosa (V. atropilosa; release rate 1, hole 2 mm, loading 75 μL): 0 | Total Yellowjackets Caught V. atropilosa (V. atropilosa; release rate 1.5, hole 3 mm, loading 175 μL): 0 | Total Yellowjackets Caught V. atropilosa (V. atropilosa; release rate 2, hole 5.5 mm, loading 325 μL): 1
